Laboratory results published in the NIST ThermoML archive (doi:10.1016/j.jct.2018.04.018).
Numbers after ± are expanded uncertainties.

Assay: molar heat capacity at constant pressure
Details: 101.33 kPa, Liquid, DSC

## CCCCCCCC[n+]1ccn(C)c1.F[P-](F)(F)(F)(F)F [1-octyl-3-methylimidazolium hexafluorophosphate]
253.15 K
  molar heat capacity at constant pressure: 549.23 ± 21 J/K/mol
258.15 K
  molar heat capacity at constant pressure: 551.95 ± 21 J/K/mol
263.15 K
  molar heat capacity at constant pressure: 554.33 ± 21 J/K/mol
268.15 K
  molar heat capacity at constant pressure: 556.71 ± 21 J/K/mol
273.15 K
  molar heat capacity at constant pressure: 559.77 ± 22 J/K/mol
278.15 K
  molar heat capacity at constant pressure: 562.84 ± 22 J/K/mol
283.15 K
  molar heat capacity at constant pressure: 566.92 ± 22 J/K/mol
288.15 K
  molar heat capacity at constant pressure: 570.32 ± 22 J/K/mol
293.15 K
  molar heat capacity at constant pressure: 573.73 ± 22 J/K/mol
298.15 K
  molar heat capacity at constant pressure: 577.47 ± 22 J/K/mol
303.15 K
  molar heat capacity at constant pressure: 580.53 ± 22 J/K/mol
308.15 K
  molar heat capacity at constant pressure: 584.28 ± 23 J/K/mol
313.15 K
  molar heat capacity at constant pressure: 587.34 ± 23 J/K/mol
318.15 K
  molar heat capacity at constant pressure: 590.4 ± 23 J/K/mol
323.15 K
  molar heat capacity at constant pressure: 593.46 ± 23 J/K/mol
328.15 K
  molar heat capacity at constant pressure: 597.21 ± 23 J/K/mol
333.15 K
  molar heat capacity at constant pressure: 600.27 ± 23 J/K/mol
338.15 K
  molar heat capacity at constant pressure: 602.99 ± 23 J/K/mol
343.15 K
  molar heat capacity at constant pressure: 606.05 ± 23 J/K/mol
348.15 K
  molar heat capacity at constant pressure: 608.78 ± 23 J/K/mol
353.15 K
  molar heat capacity at constant pressure: 611.84 ± 24 J/K/mol
358.15 K
  molar heat capacity at constant pressure: 614.22 ± 24 J/K/mol
363.15 K
  molar heat capacity at constant pressure: 617.28 ± 24 J/K/mol
368.15 K
  molar heat capacity at constant pressure: 620.01 ± 24 J/K/mol
373.15 K
  molar heat capacity at constant pressure: 622.39 ± 24 J/K/mol
378.15 K
  molar heat capacity at constant pressure: 625.45 ± 24 J/K/mol
383.15 K
  molar heat capacity at constant pressure: 628.17 ± 24 J/K/mol
388.15 K
  molar heat capacity at constant pressure: 630.55 ± 25 J/K/mol
393.15 K
  molar heat capacity at constant pressure: 633.28 ± 25 J/K/mol
398.15 K
  molar heat capacity at constant pressure: 636.68 ± 25 J/K/mol
403.15 K
  molar heat capacity at constant pressure: 639.74 ± 25 J/K/mol
408.15 K
  molar heat capacity at constant pressure: 643.83 ± 25 J/K/mol
413.15 K
  molar heat capacity at constant pressure: 646.89 ± 25 J/K/mol
